The values below come from publication PMC8300937, “New azolyl-derivatives as multitargeting agents against breast cancer and fungal infections: synthesis, biological evaluation and docking study” (Journal of Enzyme Inhibition and Medicinal Chemistry, 2021).

SMILES strings stand for the structures. Values after ≈ are worked out from the molar mass of the structure shown.

One series concerns the target T1, Recombinant human iNOS (Homo sapiens, UniProt P35228).
T1 construct: purchased Enzo Life Sciences, Inc
As to the kind of experiment: iNOS inhibition, L-citrulline assay with fluorimetric (HPLC) detection. The class given is biochemical. The following applies: for iNOS % inhibition: compounds at 1 µM, normalised to 1400 W (positive control, 100% inhibition at 1 μM), triplicate, mean ± SD; for inhibition at 1 µM: read-out: iNOS % inhibition. How it is done: The injection volume was 5 μL.
Recombinant human iNOS was purchased from Enzo Life Sciences, Inc. (New York, USA).

A further series concerns the target T2, aromatase (CYP19A) (Homo sapiens, UniProt P11511).
T2 construct: purchased BioVision
T2 sequence (P11511 1-503): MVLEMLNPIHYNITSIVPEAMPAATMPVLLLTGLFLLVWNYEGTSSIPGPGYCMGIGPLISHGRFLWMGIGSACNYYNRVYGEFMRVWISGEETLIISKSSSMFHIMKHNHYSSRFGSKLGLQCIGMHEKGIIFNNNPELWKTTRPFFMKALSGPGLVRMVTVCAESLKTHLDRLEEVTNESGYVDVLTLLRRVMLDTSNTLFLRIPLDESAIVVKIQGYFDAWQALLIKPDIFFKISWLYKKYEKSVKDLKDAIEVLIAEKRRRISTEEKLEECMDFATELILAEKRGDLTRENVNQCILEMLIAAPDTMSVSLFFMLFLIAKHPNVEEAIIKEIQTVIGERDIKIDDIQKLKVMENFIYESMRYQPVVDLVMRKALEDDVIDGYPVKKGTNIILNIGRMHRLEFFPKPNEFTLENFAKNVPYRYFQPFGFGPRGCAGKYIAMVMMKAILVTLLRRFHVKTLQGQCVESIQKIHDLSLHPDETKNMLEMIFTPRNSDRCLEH
As to the kind of experiment: Aromatase inhibition, fluorimetric assay kit (Aromatase-CYP19A Inhibitor Screening kit, BioVision). The class given is biochemical. The following applies: read-out: Aromatase % inhibition.

The next series concerns C. albicans ATCC 90028. As to the kind of experiment: Antifungal broth microdilution (EUCAST), standard strain. The class given is cell-based. The following applies: Candida albicans, ATCC90028; C. albicans ATCC 90028; 24 h, ≥50% growth inhibition; read-out: MIC. As to the method: The antifungal activity of the most representative compounds was evaluated versus one ATCC 90028 strain and 15 clinical isolates belonging to the most clinically relevant Candida spp. (C. albicans, C. tropicalis, and C. glabrata). All strains were stored at −80 °C in Sabouraud Broth (Oxoid LTD, Basingstoke, Hampshire, England) with 20% of glycerine until their use. The strains were grown on Sabouraud CAF agar (Thermo Fisher Scientific Waltham, MA, USA), and incubated for 24–48 h at 37 °C. […] The in vitro antifungal activity was determined by broth microdilution method with RPMI 1640 (Sigma-Aldrich. ST Louis, MO, USA) as recommended by EUCAST, and the E. Def 7.3, method document (http://www.eucast.org). […] Each plate included the following controls: (i) inoculum suspension (growth control), (ii) drug-free medium, (iii) medium with drug, and (iv) distilled water (used for the inoculum preparation). Fluconazole was used as a reference drug according to the EUCAST guidelines. The plates were incubated for 24 h at 37 °C, and then read with a plate reader at 530 nm. […] Three independent experiments were performed in triplicate.
(In broth dilution the organism is exposed to a series of concentrations in liquid medium.)

Series [1] deals with MCF-7 breast cancer cell line. As to the kind of experiment: Cell metabolic activity (MTT assay). The class given is cell-based. The following applies: Homo sapiens, MCF7; MCF-7, 24 h exposure; read-out: IC50 cell metabolic activity (MTT). How it is done: Human breast cancer MCF-7 (HTB-22™) cells were purchased from ATCC® and maintained in Dulbecco’s Modified Eagle Medium (DMEM) high glucose supplemented with 10% of foetal bovine serum (FBS) and 1% of penicillin/streptomycin (all from Gibco-Thermofisher Scientific, MD, USA) at 37 °C and 5% CO2.
Cell metabolic activity of MCF-7 human breast cancer cells was assessed by MTT (3–(4,5-dimethylthiazol-2-yl)-2,5-diphenyltetrazolium bromide) test (Sigma Aldrich, Milan, Italy). Cells were seeded (0.1 × 10^4/well) in a 96-well tissue culture-treated plate (Falcon®, Corning Incorporated, NY, USA) and let them adhere for 24 h. Next, the cell monolayer was incubated in the presence of loading concentrations of compounds 2, 5 and 6 (0–400 µM) diluted in DMSO (final concentration 0.2%) for 24, 48 and 72 h. After the exposure time, cells were incubated with 100 μL/well of MTT (5 mg/mL) 1:10 with fresh growth medium (final concentration 0.5 mg/mL) for 4 h at 37 °C and 5% CO2. Finally, the MTT solution was removed and replaced with 100 µL/well of DMSO. Cells were incubated for an additional 20 min at 37 °C and 5% CO2 and afterward gently swirled for 10 min at room temperature. The optical density was measured at 540 nm by means of a spectrophotometer (Multiskan GO, Thermo Scientific, Monza, Italy). Results were expressed as the percentage of cells in the presence of vehicle (DMSO) set as 100% and each experiment was performed in triplicate (n = 3). Concentration-response curves and IC50 were fitted and calculated with the GraphPad Prism 5.0 (GraphPad Software, San Diego, CA, USA)[27].
A general note: Formazan colour is commonly taken as a measure of viable cells.

Protocol for aromatase (CYP19A): The aromatase inhibitory activity of the novel compounds was determined using a commercial fluorimetric kit (Aromatase CYP19A Inhibitor Screening kit, BioVision, Milpitas, CA, USA). The assay utilises a fluorogenic aromatase substrate, that is converted into a highly fluorescent metabolite detected in the visible range (Ex/Em = 488/527 nm), ensuring a high signal-to-background ratio with little interference by autofluorescence.

On to `CC(=N)NCc1cccc(CN)c1` [1400 W, reference compound], for which the iNOS % inhibition at Recombinant human iNOS was determined as 100%.
Same read-out and setting: the value for `OC(Cc1ccccc1)Cn1ccnc1` (stereo not drawn) [Compound 1, 1-(1H-imidazol-1-yl)-3-phenylpropan-2-ol] was “complete enzyme inhibition”.
`O=C(OC(Cc1ccccc1)Cn1ccnc1)c1ccc2ccccc2c1` (stereo not drawn) [Compound 3, 1-benzyl-2-(1H-imidazol-1-yl)ethyl 2-naphthoate] returned a melting point of 71 to 72 °C. The inhibition at 1 µM on aromatase (CYP19A) was found to be 13 ± 0.5%. Besides, the MIC with C. albicans ATCC 90028 turned out to be 64 µg/mL (≈ 180 µM). The inhibition at 1 µM on Recombinant human iNOS worked out at 0%.
For the compound `O=C(OC(Cc1ccccc1)Cn1ccnc1)c1cccc(C(=O)c2ccccc2)c1` (stereo not drawn) [Compound 4, 1-benzyl-2-(1H-imidazol-1-yl)ethyl 3-benzoylbenzoate], the melting point is 86 to 87 °C. The inhibition at 1 µM on aromatase (CYP19A) was 36 ± 1.2%. Further, the minimal inhibitory concentration (MIC) in the series on C. albicans ATCC 90028 is more than 64 µg/mL. The inhibition at 1 µM at Recombinant human iNOS stood at 47 ± 1.3%.
As for `O=C(NCc1ccccc1)OC(Cc1ccccc1)Cn1ccnc1` (stereo not drawn) [Compound 6, 1-benzyl-2-(1H-imidazol-1-yl)ethyl benzylcarbamate], the inhibition at 1 µM at aromatase (CYP19A) is 72 ± 1.4%; on Recombinant human iNOS, 52 ± 0.7%. The MIC with C. albicans ATCC 90028 is more than 64 µg/mL. For the same compound, the concentration for half-maximal inhibition (IC50) in series [1] is more than 400 µM.
Turning to `COc1ccc(NC(=S)OC(Cc2ccccc2)Cn2ccnc2)c(OC)c1` (stereo not drawn) [Compound 7, O-[1-benzyl-2-(1H-imidazol-1-yl)ethyl] (2,4-dimethoxyphenyl)thiocarbamate], the inhibition at 1 µM on aromatase (CYP19A) turned out to be 15 ± 0.3%; on Recombinant human iNOS, 7 ± 0.08%. The minimal inhibitory concentration (MIC) with C. albicans ATCC 90028 was more than 64 µg/mL.
Turning to `COc1cc(C)ccc1NC(=S)OC(Cc1ccccc1)Cn1ccnc1` (stereo not drawn) [Compound 8, O-[1-benzyl-2-(1H-imidazol-1-yl)ethyl] (2-methoxy-4-methylphenyl)thiocarbamate], the melting point was 120 to 121 °C. In addition, at aromatase (CYP19A), the inhibition at 1 µM is 54 ± 0.9%. For the same compound, on Recombinant human iNOS, the inhibition at 1 µM was 12 ± 0.1%.
Take `O=S(=O)(c1ccccc1)N1CCCC(Cn2cncn2)C1` (stereo not drawn) [Compound 13, 1-(phenylsulfonyl)-3-(1H-1,2,4-triazol-1-ylmethyl)piperidine]: the melting point was in the range of 72 to 73 °C. In addition, the inhibition at 1 µM on aromatase (CYP19A) turned out to be 29 ± 1.5%. The inhibition at 1 µM on Recombinant human iNOS worked out at 27 ± 0.4%.
Turning to `Cc1ccc(S(=O)(=O)N2CCCC(Cn3cncn3)C2)cc1` (stereo not drawn) [Compound 14, 1-[(4-methylphenyl)sulphonyl]-3-(1H-1,2,4-triazol-1-ylmethyl)piperidine], the inhibition at 1 µM on aromatase (CYP19A) turned out to be 32 ± 1.2%; on Recombinant human iNOS it was 22 ± 0.5%.
Regarding `COc1ccc(S(=O)(=O)N2CCCC(Cn3cncn3)C2)c(OC)c1` (stereo not drawn) [Compound 15, 1-[(2,4-dimethoxyphenyl)sulphonyl]-3-(1H-1,2,4-triazol-1-ylmethyl)piperidine], the inhibition at 1 µM at aromatase (CYP19A) came to 62 ± 2.8%; at Recombinant human iNOS, 18 ± 0.1%.
Regarding `O=[N+]([O-])c1cccc(S(=O)(=O)N2CCCC(Cn3cncn3)C2)c1` (stereo not drawn) [Compound 16, 1-[(3-nitrophenyl)sulphonyl]-3-(1H-1,2,4-triazol-1-ylmethyl)piperidine], the inhibition at 1 µM at aromatase (CYP19A) was found to be 63 ± 3.1%; on Recombinant human iNOS, 47 ± 0.3%. Further, the MIC in the series with C. albicans ATCC 90028 was more than 64 µg/mL.
In turn, `Cc1ccc(S(=O)(=O)N2CCCC(Cn3cncn3)C2)cc1[N+](=O)[O-]` (stereo not drawn) [Compound 17, 1-[(4-methyl-3-nitrophenyl)sulphonyl]-3-(1H-1,2,4-triazol-1-ylmethyl)piperidine] returned a melting point of 105 to 106 °C. Besides, the inhibition at 1 µM on aromatase (CYP19A) was found to be 25 ± 1.3%. The minimal inhibitory concentration (MIC) with C. albicans ATCC 90028 was more than 64 µg/mL. In addition, the inhibition at 1 µM at Recombinant human iNOS was found to be 39 ± 0.2%.
`N#Cc1ccc(S(=O)(=O)N2CCCC(Cn3cncn3)C2)c(Cl)c1` (stereo not drawn) [Compound 18, 3-chloro-4-{[3-(1H-1,2,4-triazol-1-ylmethyl)piperidin-1-yl]sulphonyl}benzonitrile]: the melting point was in the range of 81 to 82 °C. Besides, on aromatase (CYP19A), the inhibition at 1 µM was 55 ± 1.1%. Besides, the MIC in the series on C. albicans ATCC 90028 is more than 64 µg/mL. The inhibition at 1 µM on Recombinant human iNOS was 14 ± 0.2%.
Compound `N#Cc1ccc(S(=O)(=O)N2CCCC(Cn3cncn3)C2)cc1` (stereo not drawn) [Compound 19, 4-{[3-(1H-1,2,4-triazol-1-ylmethyl)piperidin-1-yl]sulphonyl}benzonitrile] displayed a melting point of 95 to 96 °C. Also, the inhibition at 1 µM at aromatase (CYP19A) came to 48 ± 1.7%. Moreover, the inhibition at 1 µM on Recombinant human iNOS was 16 ± 0.7%.
For `CC(=O)Nc1ccc(S(=O)(=O)N2CCCC(Cn3cncn3)C2)cc1` (stereo not drawn) [Compound 20, N-(4-{[3-(1H-1,2,4-triazol-1-ylmethyl)piperidin-1-yl]sulphonyl}phenyl)acetamide], the inhibition at 1 µM at aromatase (CYP19A) stood at 61 ± 2.1%; on Recombinant human iNOS, 0%.
On to `OC(Cn1cncn1)(Cn1cncn1)c1ccc(F)cc1F` [Fluconazole, reference compound], for which the MIC with C. albicans ATCC 90028 is 0.25 µg/mL (≈ 0.816 µM).
Take `N#Cc1ccc(C(c2ccc(C#N)cc2)n2cncn2)cc1` [letrozole, reference compound]: the inhibition at 1 µM on aromatase (CYP19A) is 100%.

For orientation: inhibition means the percentage by which the read-out fell short of the control. One may read the melting point as the temperature, or range, at which the solid turns liquid. By MIC is commonly meant the lowest concentration that inhibits growth of the organism. As a reminder, the IC50 is the midpoint of a concentration-inhibition curve.
